Assay results taken from PMC12316734, “Lipase Activation by Poly(Methyl Methacrylate) in Dispersed Solution: Mechanistic Insights by Fluorescence Spectroscopy” (Applied Biochemistry and Biotechnology, 2025).

Molecular target: T1, Bacillus subtilis lipase A (BSLA WT) (Bacillus subtilis, UniProt P37957)
T1 construct: gene estA
Experiment: fluorogenic hydrolysis assay
Assay type: biochemical
Settings: 500 nM enzyme, 20 °C; W42C purified by cation exchange

## CCCC(=O)Oc1ccc2c(C)cc(=O)oc2c1 [4-methylumbelliferyl butyrate]
  fluorogenic hydrolysis assay: The kinetic effect of PMMA on BSLA WT and W42C was found to be identical
